Laboratory results published in the supplement of paper PMC10307832.

Tests used:
[1] = compound: NC(=O)c1ccc(N(C(N)=O)c2c(F)cccc2F)nc1-c1ccc(F)cc1F [VX-702]; assay: relative viability (nuclei count vs DMSO), 5 days (fraction); higher = more cells survive
In short: (§1)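 Only plates meeting two conditions passed: control CV below 25% and at least one doubling. Lung cancer cell lines, kept overnight at 37 °C in 1536-well plates, were pinned with five library-drug doses (not always all listed) √10 apart on vehicle-anchored plates and grown 5 days without medium change. A one-step fix, permeabilisation and Hoechst stain preceded 4× imaging and MetaXpress nuclear counting. Viability equals treated-well nuclei divided by vehicle-well nuclei, as the median over plates.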

[2] = compound: CC(C)(C)c1nc(-c2cccc(NS(=O)(=O)c3c(F)cccc3F)c2F)c(-c2ccnc(N)n2)s1 [Dabrafenib]; assay: as above
In short: as §1

Cell Line | relative viability ([1]; 0.02 µM) | relative viability ([1]; 0.2 µM) | relative viability ([1]; 0.6325 µM) | relative viability ([1]; 2 µM) | relative viability ([2]; 0.009487 µM) | relative viability ([2]; 0.03 µM) | relative viability ([2]; 0.09487 µM) | relative viability ([2]; 0.3 µM) | relative viability ([2]; 0.003 µM)
NCI-H1355 | 1.07 | 0.997 | 1.02 | 1.08 | 0.986 | 0.986 | 0.739 | 1.04 | 
NCI-H1395 | 0.971 | 0.909 | 0.97 | 1.03 | 0.971 | 0.854 | 0.774 | 0.788 | 
NCI-H1437 | 0.995 | 0.973 | 1.06 | 1.15 | 0.971 | 1.02 | 0.971 | 1.02 | 0.939
NCI-H1563 | 0.991 | 1.06 | 0.976 | 1.07 | 1.01 | 0.815 | 0.988 | 1.04 | 0.971
NCI-H1623 | 0.834 | 0.943 | 1.02 | 0.905 | 0.969 | 0.924 | 1.03 | 1.13 | 
NCI-H1648 | 0.926 | 0.877 | 0.688 | 0.63 | 0.861 | 0.814 | 1.12 | 1.17 | 1.02
NCI-H1650 | 1 | 1.01 | 1.09 | 1.02 | 1.26 | 0.854 | 1.07 | 1.36 | 0.944
NCI-H1651 | 1.02 | 0.985 | 0.998 | 1.06 | 0.939 | 0.953 | 1.02 | 0.948 | 0.977
NCI-H1666 | 0.968 | 0.854 | 0.972 | 0.75 | 0.943 | 1.03 | 0.984 | 1.01 | 1.01
NCI-H1703 | 0.936 | 0.91 | 0.849 | 1.21 | 1.12 | 0.887 | 0.843 | 1.14 | 1
NCI-H1734 | 1.04 | 0.919 | 0.876 | 0.703 | 1.08 | 0.716 | 0.765 | 0.891 | 
NCI-H1755 | 1.01 | 1.03 | 1.1 | 0.998 | 1.03 | 0.875 | 0.94 | 0.971 | 0.99
NCI-H1792 | 0.763 | 0.87 | 0.866 | 1.05 | 0.915 | 0.877 | 0.679 | 0.806 | 
NCI-H1793 | 0.916 | 0.79 | 0.968 | 0.844 | 1.29 |  | 0.761 | 1.05 | 
NCI-H1915 | 1.08 | 1 | 1 | 1.05 | 1.04 | 0.823 | 0.523 | 0.579 | 1.03
